Experimental findings from patent US20220089568A1 (Janssen Biotech, Inc., priority 2019, published 2022) are described below.

pEC50: −log10 of the molar value.

For assay [1], the system named is MOLM-13 cells. Nature of the assay: MOLM-13 Cellular Assay. In kind it is cell-based. The note with it: Homo sapiens, 72 hours exposure, cell viability by CellTiter-Glo. On the procedure:
The day prior to assay set-up, cells were pelleted, resuspended in fresh media, counted, and cells were plated at 0.4×10^6 cell/mL in a T150 flask. […] Cells were exposed to different concentrations of test compounds at 37° C., 5% CO2 for 72 hours immediately after seeding.

In assay [2] the target is T1, human DHODH (Homo sapiens, UniProt Q02127).
T1 construct: purchased Proteros PR-0044
Nature of the assay: DHODH Enzymatic Assay. In kind it is biochemical. The note with it: purified human DHODH; DCIP absorbance, end-point mode. Summed up: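 Purified human DHODH activity read as absorbance of DCIP, the terminal electron acceptor, in […] pH 7.5, 150 mM NaCl, 0.5 mM EDTA, 0.1% Triton X-100. Reaction started with a substrate mix of 20 mM DHO, 5 mM CoQ6 and 1 mM DCIP in assay buffer.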

T1 sequence (Q02127 whole entry): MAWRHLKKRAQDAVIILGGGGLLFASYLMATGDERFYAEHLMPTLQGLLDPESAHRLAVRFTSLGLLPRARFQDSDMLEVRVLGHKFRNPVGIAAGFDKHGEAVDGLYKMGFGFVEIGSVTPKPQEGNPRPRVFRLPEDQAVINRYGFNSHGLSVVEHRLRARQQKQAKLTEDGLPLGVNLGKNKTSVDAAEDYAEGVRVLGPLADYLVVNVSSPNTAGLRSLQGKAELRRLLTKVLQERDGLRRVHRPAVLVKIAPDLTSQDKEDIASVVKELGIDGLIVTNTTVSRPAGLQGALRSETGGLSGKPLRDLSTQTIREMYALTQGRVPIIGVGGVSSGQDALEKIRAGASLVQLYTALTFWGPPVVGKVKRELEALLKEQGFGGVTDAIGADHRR

In the case of `CCn1c(CO)nn(-c2nc(O[C@@H](C)C(F)(F)F)c(C(=O)Nc3cc(OC)ncc3Cl)cc2F)c1=O` [Example 98, N-(5-Chloro-2-methoxy-4-pyridyl)-6-[4-ethyl-3-(hydroxymethyl)-5-oxo-1,2,4-triazol-1-yl]-5-fluoro-2-[(1S)-2,2,2-trifluoro-1-methyl-ethoxy]pyridine-3-carboxamide], the pEC50 in assay [1] was 7.38; in assay [2] it was 7.04.
On the same counts, the results for `CCn1c(C(C)O)nn(-c2nc(O[C@@H](C)C(F)(F)F)c(C(=O)Nc3c(C)n[nH]c3C(F)(F)F)cc2F)c1=O` (mixture of isomers) [Example 127, (Racemic)-6-[4-Ethyl-3-(1-hydroxyethyl)-5-oxo-1,2,4-triazol-1-yl]-5-fluoro-N-[3-methyl-5-(trifluoromethyl)-1H-pyrazol-4-yl]-2-(2,2,2-trifluoro-1-methyl-ethoxy)pyridine-3-carboxamide] are 9.03 and 8.37.
On to `CCn1c(CO)nn(-c2nc(O[C@@H](C)C(F)(F)F)c(C(=O)Nc3nc(OC)ccc3Cl)cc2F)c1=O` [Example 21, (S)-N-(3-chloro-6-methoxypyridin-2-yl)-6-(4-ethyl-3-(hydroxymethyl)-5-oxo-4,5-dihydro-1H-1,2,4-triazol-1-yl)-5-fluoro-2-((1,1,1-trifluoropropan-2-yl)oxy)nicotinamide], for which the negative logarithm of the EC50 (pEC50) was 8.74 in assay [1] and 8.92 in assay [2].
For `CCn1c(CO)nn(-c2nc(O[C@@H](C)C(F)(F)F)c(C(=O)Nc3c(C)ccnc3C)cc2F)c1=O` [Example 18, (S)-N-(2,4-Dimethylpyridin-3-yl)-6-(4-ethyl-3-(hydroxymethyl)-5-oxo-4,5-dihydro-1H-1,2,4-triazol-1-yl)-5-fluoro-2-((1,1,1-trifluoropropan-2-yl)oxy)nicotinamide] the same measures were 7.89 and 8.43.
For `CCCn1c(CO)nn(-c2nc(O[C@@H](C)C(F)(F)F)c(C(=O)Nc3c(C)ccnc3Cl)cc2F)c1=O` [Example 84, N-(2-Chloro-4-methyl-3-pyridyl)-5-fluoro-6-[3-(hydroxymethyl)-5-oxo-4-propyl-1,2,4-triazol-1-yl]-2-[(1S)-2,2,2-trifluoro-1-methyl-ethoxy]pyridine-3-carboxamide], the pEC50 was 8.32 in assay [1] and 8.29 in assay [2].
On the same counts, the results for `CCn1c(CO)nn(-c2nc(O[C@@H](C)C(F)(F)F)c(C(=O)Nc3c(C)n[nH]c3Cl)cc2F)c1=O` [Example 25, (S)-N-(5-Chloro-3-methyl-1H-pyrazol-4-yl)-6-(4-ethyl-3-(hydroxymethyl)-5-oxo-4,5-dihydro-1H-1,2,4-triazol-1-yl)-5-fluoro-2-((1,1,1-trifluoropropan-2-yl)oxy)nicotinamide] are 8.52 and 9.08.
On the same counts, the results for `CCn1c(CO)nn(-c2nc(O[C@@H](C)C(F)(F)F)c(C(=O)Nc3c(OC)n[nH]c3C)cc2F)c1=O` [Example 121, 6-[4-Ethyl-3-(hydroxymethyl)-5-oxo-1,2,4-triazol-1-yl]-5-fluoro-N-(3-methoxy-5-methyl-1H-pyrazol-4-yl)-2-[(1S)-2,2,2-trifluoro-1-methyl-ethoxy]pyridine-3-carboxamide] are 8.61 and 7.64.
On the same counts, the results for `CCn1c(CO)nn(-c2nc(O[C@@H](C)C(F)(F)F)c(C(=O)Nc3ccccc3C)cc2F)c1=O` [Example 120, 6-[4-Ethyl-3-(hydroxymethyl)-5-oxo-1,2,4-triazol-1-yl]-5-fluoro-N-(o-tolyl)-2-[(1S)-2,2,2-trifluoro-1-methyl-ethoxy]pyridine-3-carboxamide] are more than 9.77 and 9.61.
In the case of `Cc1ccnc(Cl)c1NC(=O)c1cc(F)c(-n2nc(CO)n(CC(F)F)c2=O)nc1O[C@@H](C)C(F)(F)F` [Example 90, N-(2-Chloro-4-methyl-3-pyridyl)-6-[4-(2,2-difluoroethyl)-3-(hydroxymethyl)-5-oxo-1,2,4-triazol-1-yl]-5-fluoro-2-[(1S)-2,2,2-trifluoro-1-methyl-ethoxy]pyridine-3-carboxamide], the pEC50 in assay [1] is 7.83; in assay [2] it was 7.64.
On the same counts, the results for `Cc1[nH]nc(Cl)c1NC(=O)c1cc(F)c(-n2nc(CF)n(CCCO)c2=O)nc1O[C@@H](C)C(F)(F)F` [Example 107, N-(3-Chloro-5-methyl-1H-pyrazol-4-yl)-5-fluoro-6-[3-(fluoromethyl)-4-(3-hydroxypropyl)-5-oxo-1,2,4-triazol-1-yl]-2-[(1S)-2,2,2-trifluoro-1-methyl-ethoxy]pyridine-3-carboxamide] are 8.82 and 7.74.
On the same counts, the results for `CCn1c(CO)nn(-c2nc(O[C@@H](C)C(F)(F)F)c(C(=O)Nc3cc(C)cnc3Cl)cc2F)c1=O` [Example 67, (S)-N-(2-Chloro-5-methylpyridin-3-yl)-6-(4-ethyl-3-(hydroxymethyl)-5-oxo-4,5-dihydro-1H-1,2,4-triazol-1-yl)-5-fluoro-2-((1,1,1-trifluoropropan-2-yl)oxy)nicotinamide] are 7.33 and 8.24.
For `CCn1c(CO)nn(-c2nc(O[C@@H](C)C(F)(F)F)c(C(=O)Nc3ccnnc3OC)cc2F)c1=O` [Example 109, 6-[4-Ethyl-3-(hydroxymethyl)-5-oxo-1,2,4-triazol-1-yl]-5-fluoro-N-(3-methoxypyridazin-4-yl)-2-[(1S)-2,2,2-trifluoro-1-methyl-ethoxy]pyridine-3-carboxamide] the same measures were less than 7.00 and less than 7.00.
With `CCn1c(CO)nn(-c2nc(O[C@@H](C)C(F)(F)F)c(C(=O)Nc3nccnc3OC)cc2F)c1=O` [Example 34, (S)-6-(4-Ethyl-3-(hydroxymethyl)-5-oxo-4,5-dihydro-1H-1,2,4-triazol-1-yl)-5-fluoro-N-(3-methoxypyrazin-2-yl)-2-((1,1,1-trifluoropropan-2-yl)oxy)nicotinamide], the pEC50 was less than 7.00 in assay [1] and 6.44 in assay [2].
On the same counts, the results for `CCn1c(CO)nn(-c2nc(O[C@@H](C)C(F)(F)F)c(C(=O)Nc3ccncc3Cl)cc2F)c1=O` [Example 10, (S)-N-(3-Chloropyridin-4-yl)-6-(4-ethyl-3-(hydroxymethyl)-5-oxo-4,5-dihydro-1H-1,2,4-triazol-1-yl)-5-fluoro-2-((1,1,1-trifluoropropan-2-yl)oxy)nicotinamide] are 7.22 and 7.64.
For `CCn1c(CO)nn(-c2nc(O[C@@H](C)C(F)(F)F)c(C(=O)Nc3csnc3C)cc2F)c1=O` [Example 17, (S)-6-(4-Ethyl-3-(hydroxymethyl)-5-oxo-4,5-dihydro-1H-1,2,4-triazol-1-yl)-5-fluoro-N-(3-methylisothiazol-4-yl)-2-((1,1,1-trifluoropropan-2-yl)oxy)nicotinamide] the same measures were 7.06 and 7.51.
As for `Cc1n[nH]c(Cl)c1NC(=O)c1cc(F)c(-n2nc(CF)n(CCO)c2=O)nc1O[C@@H](C)C(F)(F)F` [Example 115, N-(5-Chloro-3-methyl-1H-pyrazol-4-yl)-5-fluoro-6-[3-(fluoromethyl)-4-(2-hydroxyethyl)-5-oxo-1,2,4-triazol-1-yl]-2-[(1S)-2,2,2-trifluoro-1-methyl-ethoxy]pyridine-3-carboxamide], the pEC50 in assay [1] was 8.90; in assay [2] it was 8.39.
For `CCn1c(CO)nn(-c2nc(O[C@@H](C)C(F)(F)F)c(C(=O)Nc3c(C)ccnc3OC)cc2F)c1=O` [Example 68, (S)-6-(4-Ethyl-3-(hydroxymethyl)-5-oxo-4,5-dihydro-1H-1,2,4-triazol-1-yl)-5-fluoro-N-(2-methoxy-4-methylpyridin-3-yl)-2-((1,1,1-trifluoropropan-2-yl)oxy)nicotinamide] the same measures were 9.05 and 9.06.
`CCn1c(CF)nn(-c2nc(O[C@@H](C)C(F)(F)F)c(C(=O)Nc3c(F)cccc3Cl)cc2F)c1=O` [Example 3, (S)-N-(2-Chloro-6-fluorophenyl)-6-(4-ethyl-3-(fluoromethyl)-5-oxo-4,5-dihydro-1H-1,2,4-triazol-1-yl)-5-fluoro-2-((1,1,1-trifluoropropan-2-yl)oxy)nicotinamide]: the pEC50 in assay [1] was 10.43; in assay [2], 9.61.
On the same counts, the results for `CCn1c(CO)nn(-c2nc(O[C@@H](C)C(F)(F)F)c(C(=O)Nc3c(C)cc(C)nc3Cl)cc2F)c1=O` [Example 72, (S)-N-(2-Chloro-4,6-dimethylpyridin-3-yl)-6-(4-ethyl-3-(hydroxymethyl)-5-oxo-4,5-dihydro-1H-1,2,4-triazol-1-yl)-5-fluoro-2-((1,1,1-trifluoropropan-2-yl)oxy)nicotinamide] are 8.85 and 9.05.
On the same counts, the results for `CCn1c(CO)nn(-c2nc(O[C@@H](C)C(F)(F)F)c(C(=O)Nc3ccc(C)nc3Cl)cc2F)c1=O` [Example 77, N-(2-Chloro-6-methyl-3-pyridyl)-6-[4-ethyl-3-(hydroxymethyl)-5-oxo-1,2,4-triazol-1-yl]-5-fluoro-2-[(1S)-2,2,2-trifluoro-1-methyl-ethoxy]pyridine-3-carboxamide] are 7.88 and 7.85.
On the same counts, the results for `CCn1c(CO)nn(-c2nc(OC3CC(F)(F)C3(F)F)c(C(=O)Nc3c(F)cccc3Cl)cc2F)c1=O` (racemic) [Example 8, Racemic-N-(2-Chloro-6-fluorophenyl)-6-(4-ethyl-3-(hydroxymethyl)-5-oxo-4,5-dihydro-1H-1,2,4-triazol-1-yl)-5-fluoro-2-(2,2,3,3-tetrafluorocyclobutoxy)nicotinamide] are 7.80 and 7.66.
For `CCn1c(CO)nn(-c2nc(O[C@@H](C)C(F)(F)F)c(C(=O)Nc3cc(Cl)cnc3C)cc2F)c1=O` [Example 52], the figures for the pEC50 in assay [1] and in assay [2] were 7.16 and 7.89, respectively.
